Measurements from patent US20240246994A1, “Polymorph Of Imidazolidinone Compound, Preparation Method Therefor And Use Thereof” (Betta Pharmaceuticals Co., Ltd., priority 2021, published 2024).

Experiments:
[1] = molecular target: PI3Kα (Homo sapiens, UniProt P42336); experiment: PI3Kα kinase assay (ADP-Glo, luminescence); type: biochemical; conditions: final ATP concentration 10 μM; read-out: IC50 of Compound PI3K α
Protocol: (§1) PI3Kα, PI3Kβ, PI3Kγ kinases were enzymatically reacted with their substrates ATP and PIP2:3PS, and the amount of the reaction products were determined to reflect the enzymatic activities of PI3Kα, PI3Kβ, PI3Kγ using ADP-Glo reagent and luminescence method (final ATP concentration of 10 μM). The inhibitory activities of Compound 1 of the present invention on PI3Kα, PI3Kβ and PI3Kγ kinases were tested using the above method.
(§2) Reagents: basic kinase buffer (pH 7.5); PI3Kα, PI3Kβ, PI3Kγ enzyme solutions; solution of PIP2:3PS and ATP; and ADP-Glo kit (containing 10 mM of MgCl2).
(§3) Among them, the buffer components are: 50 mM of Hepes (pH 7.2 to pH 7.5), 3 mM of MgCl2, 1 mM of EGTA, 0.03% of CHAPS, 100 mM of NaCl, and 2 mM of DTT;
(§4) Preparation of compound: Compound 1 of the present application was completely dissolved in DMSO and diluted to a specific concentration so that the final concentration of the compound in the incubation system was 1000 nM, 333 nM, 111 nM, 37 nM, 12.4 nM, 4.1 nM, 1.4 nM, 0.46 nM, 0.15 nM and 0.05 nM (PI3Kα); 30,000 nM, 10,000 nM, 3333 nM, 1111 nM, 370 nM, 123 nM, 41 nM, 13.7 nM, 4.6 nM and 1.5 nM (PI3Kβ, PI3Kγ). […]

[2] = molecular target: PI3Kβ (Homo sapiens, UniProt P42338); experiment: PI3Kβ kinase assay (ADP-Glo, luminescence); type: biochemical; conditions: final ATP concentration 10 μM; read-out: IC50 of Compound PI3K β
Sequence of PI3Kβ (P42338 whole entry): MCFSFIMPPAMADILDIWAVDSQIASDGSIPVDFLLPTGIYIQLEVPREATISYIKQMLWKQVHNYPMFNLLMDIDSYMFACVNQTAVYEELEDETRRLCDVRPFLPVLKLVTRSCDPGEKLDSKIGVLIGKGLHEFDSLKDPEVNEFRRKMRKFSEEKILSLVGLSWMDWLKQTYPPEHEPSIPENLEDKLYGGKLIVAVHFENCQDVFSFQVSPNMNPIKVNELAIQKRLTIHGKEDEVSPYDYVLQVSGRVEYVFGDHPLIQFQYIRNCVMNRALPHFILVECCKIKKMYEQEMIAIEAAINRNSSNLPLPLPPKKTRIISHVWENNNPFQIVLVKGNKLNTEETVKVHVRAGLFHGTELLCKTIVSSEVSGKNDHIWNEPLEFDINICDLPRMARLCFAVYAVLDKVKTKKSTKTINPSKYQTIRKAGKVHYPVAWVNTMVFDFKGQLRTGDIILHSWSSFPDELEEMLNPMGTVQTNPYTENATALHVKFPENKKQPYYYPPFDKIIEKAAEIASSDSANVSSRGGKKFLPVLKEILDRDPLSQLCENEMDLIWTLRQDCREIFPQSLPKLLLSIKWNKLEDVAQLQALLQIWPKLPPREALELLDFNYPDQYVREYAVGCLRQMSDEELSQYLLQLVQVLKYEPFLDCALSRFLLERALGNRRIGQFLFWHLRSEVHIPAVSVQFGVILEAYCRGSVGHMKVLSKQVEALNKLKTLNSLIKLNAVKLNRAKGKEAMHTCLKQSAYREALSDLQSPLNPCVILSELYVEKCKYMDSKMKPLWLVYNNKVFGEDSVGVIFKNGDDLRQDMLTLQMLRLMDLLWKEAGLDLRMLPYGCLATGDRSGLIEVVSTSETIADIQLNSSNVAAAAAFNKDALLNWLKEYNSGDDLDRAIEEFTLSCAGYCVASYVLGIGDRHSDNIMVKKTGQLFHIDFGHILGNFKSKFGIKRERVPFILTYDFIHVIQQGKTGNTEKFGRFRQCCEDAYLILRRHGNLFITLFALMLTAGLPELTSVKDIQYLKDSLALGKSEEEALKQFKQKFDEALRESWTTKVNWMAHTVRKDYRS
Sequence of PI3Kβ (P27986 whole entry partner): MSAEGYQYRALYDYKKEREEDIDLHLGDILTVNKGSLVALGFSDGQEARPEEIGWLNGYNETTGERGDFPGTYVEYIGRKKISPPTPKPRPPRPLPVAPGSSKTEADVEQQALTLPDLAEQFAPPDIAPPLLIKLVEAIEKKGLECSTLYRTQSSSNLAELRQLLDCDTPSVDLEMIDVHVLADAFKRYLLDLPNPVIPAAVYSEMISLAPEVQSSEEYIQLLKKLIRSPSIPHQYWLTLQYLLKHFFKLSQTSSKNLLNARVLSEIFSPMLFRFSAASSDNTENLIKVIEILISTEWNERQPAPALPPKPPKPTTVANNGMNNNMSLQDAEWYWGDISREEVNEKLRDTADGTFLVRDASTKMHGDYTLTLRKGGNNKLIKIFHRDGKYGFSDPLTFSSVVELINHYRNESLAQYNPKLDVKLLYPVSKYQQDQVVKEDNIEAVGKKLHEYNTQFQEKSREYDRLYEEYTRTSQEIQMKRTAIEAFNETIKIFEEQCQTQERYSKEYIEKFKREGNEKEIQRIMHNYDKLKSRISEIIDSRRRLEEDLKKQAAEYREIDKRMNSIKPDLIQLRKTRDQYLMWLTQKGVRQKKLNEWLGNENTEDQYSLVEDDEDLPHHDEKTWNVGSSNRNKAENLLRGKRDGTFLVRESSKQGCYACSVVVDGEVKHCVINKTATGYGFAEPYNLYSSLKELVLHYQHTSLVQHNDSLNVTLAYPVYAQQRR
Protocol: as §1, §2, §3, §4

[3] = molecular target: PI3Kγ (Homo sapiens, UniProt P48736); experiment: PI3Kγ kinase assay (ADP-Glo, luminescence); type: biochemical; conditions: final ATP concentration 10 μM; read-out: IC50 of Compound PI3K γ
Sequence of PI3Kγ (P48736 whole entry): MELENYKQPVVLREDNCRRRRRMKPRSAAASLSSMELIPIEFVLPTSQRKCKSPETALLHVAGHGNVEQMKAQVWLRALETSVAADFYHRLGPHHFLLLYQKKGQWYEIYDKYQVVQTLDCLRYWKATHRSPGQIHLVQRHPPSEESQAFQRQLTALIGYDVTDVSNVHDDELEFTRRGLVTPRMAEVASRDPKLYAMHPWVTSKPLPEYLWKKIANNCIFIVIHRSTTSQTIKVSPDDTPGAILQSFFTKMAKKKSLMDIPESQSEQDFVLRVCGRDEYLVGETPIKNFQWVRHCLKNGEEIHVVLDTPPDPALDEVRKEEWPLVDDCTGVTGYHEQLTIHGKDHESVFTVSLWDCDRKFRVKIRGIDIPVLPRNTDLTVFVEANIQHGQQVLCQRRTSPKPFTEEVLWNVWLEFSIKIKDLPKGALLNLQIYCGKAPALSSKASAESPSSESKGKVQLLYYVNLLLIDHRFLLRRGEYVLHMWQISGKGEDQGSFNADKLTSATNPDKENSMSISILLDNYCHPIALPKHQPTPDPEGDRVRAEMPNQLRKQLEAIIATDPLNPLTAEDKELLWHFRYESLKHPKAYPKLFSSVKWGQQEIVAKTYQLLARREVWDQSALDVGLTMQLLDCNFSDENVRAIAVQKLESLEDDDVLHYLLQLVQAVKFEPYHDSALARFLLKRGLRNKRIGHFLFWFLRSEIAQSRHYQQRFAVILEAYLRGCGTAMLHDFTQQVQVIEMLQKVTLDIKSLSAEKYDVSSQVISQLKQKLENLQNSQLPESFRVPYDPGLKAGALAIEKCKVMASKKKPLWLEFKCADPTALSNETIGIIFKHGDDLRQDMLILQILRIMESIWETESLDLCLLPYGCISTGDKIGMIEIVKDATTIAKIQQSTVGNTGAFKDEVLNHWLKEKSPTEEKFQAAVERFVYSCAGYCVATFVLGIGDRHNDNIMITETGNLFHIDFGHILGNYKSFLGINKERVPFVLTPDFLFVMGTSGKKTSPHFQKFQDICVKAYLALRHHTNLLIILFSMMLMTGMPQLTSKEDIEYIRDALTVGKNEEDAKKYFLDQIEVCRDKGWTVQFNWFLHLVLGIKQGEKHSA
Protocol: as §1, §2, §3, §4

[4] = tested on: MCF-7 cells; experiment: Cell proliferation assay (CellTiter Glo), MCF-7; type: cell-based; conditions: Homo sapiens, MCF7; 120 h incubation; read-out: IC50 of compounds on MCF-7 cells
Protocol: Method: CellTiter Glo assay method was used to observe the growth inhibitory effect of Compound 1 of the present application on human tumor cells MCF-7 and HGC-27 cultured in vitro.
Assay method: MCF-7 cells were suspended in DMEM medium to form a cell suspension, and the cell concentration was adjusted to 25,000 cells/mL. HGC-27 cells were suspended in RPMI-1640 medium to form a cell suspension, and the cell concentration was adjusted to 5,000 cells/mL. 100 μL of cell suspension was added to a 96-well plate and placed in a CO2 incubator overnight. Compound 1 was completely dissolved in DMSO and 3-fold gradient dilution was performed to obtain a total of 10 concentrations. The 10 concentrations of the compounds to be tested or the DMSO negative control were transferred to the wells containing 100 μL of medium to give final concentrations of the compounds of 30,000 nM, 10,000 nM, 3,333 nM, 1,111 nM, 370 nM, 123 nM, 41 nM, 13.7 nM, and 4.6 nM, respectively. Incubation was performed at 37° C. under 5% CO2 for 96 h for HGC-27 cells and 120 h for MCF-7 cells. Then 100 μL of CellTiter-Glo reagent was added to the above 96-well plate and placed at room temperature for 10 min to stabilize the luminescence signal. The RLU (relative luminescence unit) value was recorded using a VICTOR™ X5 instrument, and then the IC50 value was calculated. […]

[5] = Pressure sensitivity assay (tabletting, XRPD); type: physicochemical; conditions: pressure 200, 300 and 500 kg/cm^2, 3 min
[6] = Grinding sensitivity assay (XRPD); type: physicochemical; conditions: manual grinding in a mortar, 1 min
[7] = DVS assay; type: physicochemical; conditions: 80% RH, 25° C.
Protocol: A Surface Measurement Systems Dynamic Vapor Sorption Analyzer (model of DVS Resolution) was used with an N2 flow rate: 200 sccm, detection temperature: 25° C., equilibrium time range: 5 min to 360 min, RH gradient: 10% (50% RH to 90% RH, 90% RH to 0% RH to 90% RH), and 5% (90% RH to 95% RH, 95% RH to 90% RH) to obtain dynamic vapor sorption analysis pattern.

[8] = Stress testing (influencing factors), total impurity content; type: physicochemical
[9] = Pharmacokinetic assay in rats, single gavage; type: in vivo; conditions: rat, plasma, po, male SD rats, 10 mg/kg
Protocol: Medicament preparation: the control compound, crystal form M of Compound 1 and amorphous form of Compound 2 obtained in Example 1 were weighed and prepared into a 10 mg/mL of solution to be tested in a mixture of 10% of DMSO, 10% of Solutol and 80% of saline; crystal form C of Compound 1 was added into a mixture of 5% of solutol and 95% of 0.5% CMCNa to prepare a 10 mg/mL of solution to be tested.
Assay method: 15 male SD rats with weights: 150 g to 300 g were randomly divided into 5 groups of 3 rats each, and […] of the Example compound was administered by single gavage. The blood was collected through the orbital venous plexus at the designated time points (5 min, 15 min, 30 min, 1 h, 2 h, 4 h, 7 h and 24 h) respectively, and the plasma was separated and stored in a refrigerator at −80° C. for spare use. After precipitation of proteins from the above plasma samples by acetonitrile, the supernatant was extracted and mixed with water at 1:1, and 10 μL of which was taken for LC-MS/MS detection.

[10] = Stability test of crystal form C (influencing factor, accelerated, long-term); type: physicochemical
Description: The conditions and methods for the stability test of crystal form C of Compound 1 are mainly based on the requirements of “9001 Guidelines for Stability Test of APIs and Pharmaceutical Preparations” of the fourth part general rules of the 2020 edition of the Chinese Pharmacopoeia, as shown in Table 4. [table]

[11] = tested on: catalytic subunit of PI3K (α-subunit compared to β-subunit); conditions: cited from earlier work
[12] = High temperature of 40° C., Day 5
[13] = High temperature of 40° C., Day 30
[14] = High temperature of 60° C., Day 5
[15] = High temperature of 60° C., Day 30

Sequence of PI3Kα (P42336 whole entry): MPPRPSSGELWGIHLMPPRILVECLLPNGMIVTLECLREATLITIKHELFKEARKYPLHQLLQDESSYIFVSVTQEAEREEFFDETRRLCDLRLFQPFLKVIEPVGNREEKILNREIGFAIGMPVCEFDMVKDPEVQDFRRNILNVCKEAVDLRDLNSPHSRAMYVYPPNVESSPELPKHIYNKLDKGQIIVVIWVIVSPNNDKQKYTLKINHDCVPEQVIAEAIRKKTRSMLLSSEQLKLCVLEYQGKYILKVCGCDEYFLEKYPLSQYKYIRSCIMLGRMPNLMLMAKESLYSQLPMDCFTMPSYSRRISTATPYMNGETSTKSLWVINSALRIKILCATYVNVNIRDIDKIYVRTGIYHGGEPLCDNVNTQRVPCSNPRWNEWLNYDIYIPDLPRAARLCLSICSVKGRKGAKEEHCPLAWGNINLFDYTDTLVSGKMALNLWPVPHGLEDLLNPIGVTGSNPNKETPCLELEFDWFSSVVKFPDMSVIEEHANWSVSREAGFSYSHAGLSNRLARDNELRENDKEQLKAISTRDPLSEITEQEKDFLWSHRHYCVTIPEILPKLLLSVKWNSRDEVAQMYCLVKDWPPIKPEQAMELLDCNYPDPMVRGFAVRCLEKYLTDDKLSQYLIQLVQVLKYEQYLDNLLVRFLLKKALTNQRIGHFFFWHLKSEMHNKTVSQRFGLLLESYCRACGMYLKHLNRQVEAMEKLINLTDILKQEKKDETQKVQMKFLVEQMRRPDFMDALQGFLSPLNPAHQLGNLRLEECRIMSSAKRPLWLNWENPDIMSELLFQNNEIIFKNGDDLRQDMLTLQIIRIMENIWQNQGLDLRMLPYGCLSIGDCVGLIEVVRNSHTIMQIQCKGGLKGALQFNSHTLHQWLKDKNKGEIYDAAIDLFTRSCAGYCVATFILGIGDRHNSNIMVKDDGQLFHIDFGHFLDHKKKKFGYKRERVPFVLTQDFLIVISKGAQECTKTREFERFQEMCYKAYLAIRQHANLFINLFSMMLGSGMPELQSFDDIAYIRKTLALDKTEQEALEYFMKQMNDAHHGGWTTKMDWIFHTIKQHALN
Sequence of PI3Kα (P27986 whole entry partner): as the sequence (P27986 whole entry partner) above

SMILES | Result: crystal form after tabletting [5] | XRPD pattern after grinding [6] | mass gain (DVS) [7] [%] | Total impurity content of the related material ([8]; Day 0) [%] | Total impurity content of the related material ([8]; High humidity of 75%, Day 5) [%] | Total impurity content of the related material ([8]; High humidity of 75%, Day 30) [%] | Total impurity content of the related material ([8]; High humidity of 92.5%, Day 5) [%] | Total impurity content of the related material ([8]; High humidity of 92.5%, Day 30) [%] | Total impurity content of the related material [8, 12] [%] | Total impurity content of the related material [8, 13] [%] | Total impurity content of the related material [8, 14] [%] | Total impurity content of the related material [8, 15] [%] | also measured
CC(C)[C@H]1C(=O)N(C2CC2)C(=O)N1c1cn2c(n1)-c1ccc(N3CCC[C@H]3C(N)=O)cc1OCC2 [Compound 1, (S)-1-(2-((S)-3-cyclopropyl-5-isopropyl-2,4-dioxoimidazolidin-1-yl)-5,6-dihydrobenzo[f]imidazo[1,2-d][1,4]oxazepin-9-yl)pyrrolidine-2-carboxamide] | – | – | – | – | – | – | – | – | – | – | – | – | IC50 [1]: ≤ 5 nM; IC50 [2]: > 600 nM; IC50 [3]: > 600 nM; IC50 [4]: 47 nM
CC(C)[C@H]1C(=O)N(C2CC2)C(=O)N1c1cn2c(n1)-c1ccc(N3CCC[C@H]3C(N)=O)cc1OCC2 [Crystal Form B-1, (S)-1-(2-((S)-3-cyclopropyl-5-isopropyl-2,4-dioxoimidazolidin-1-yl)-5,6-dihydrobenzo[f]imidazo[1,2-d][1,4]oxazepin-9-yl)pyrrolidine-2-carboxamide] | Form B-1 | remained consistent with the original patterns | 1.9 | 0.24 | 0.25 | 0.29 | 0.23 | 0.24 | 0.26 | 0.34 | 0.38 | 0.43 | –
CC(C)[C@H]1C(=O)N(C2CC2)C(=O)N1c1cn2c(n1)-c1ccc(N3CCC[C@H]3C(N)=O)cc1OCC2 [Crystal Form C, (S)-1-(2-((S)-3-cyclopropyl-5-isopropyl-2,4-dioxoimidazolidin-1-yl)-5,6-dihydrobenzo[f]imidazo[1,2-d][1,4]oxazepin-9-yl)pyrrolidine-2-carboxamide] | Form C | remained consistent with the original patterns | 0.7 | 0.07 | 0.07 | 0.07 | 0.07 | 0.07 | 0.07 | 0.10 | 0.08 | 0.10 | AUC [9]: 36600 ng·h/mL; Cmax [9]: 3700 ng/mL; change of testing indexes compared with day 0, long-term test ([10]; 25° C. ± 2° C., RH60% ± 5%, 6 months): no significant change; change of testing indexes compared with day 0, accelerated test ([10]; 40° C. ± 2° C., RH75%, 6 months): no significant change; change in characteristics, content, crystal form and isomer compared with day 0 ([10]; uncovered, high temperature (40° C., 60° C.) or high humidity (75%, 92.5%), 30 days): no significant change
CC(C)[C@H]1C(=O)N(C2CC2)C(=O)N1c1cn2c(n1)-c1ccc(N3CCC[C@H]3C(N)=O)cc1OCC2 [Crystal Form M, (S)-1-(2-((S)-3-cyclopropyl-5-isopropyl-2,4-dioxoimidazolidin-1-yl)-5,6-dihydrobenzo[f]imidazo[1,2-d][1,4]oxazepin-9-yl)pyrrolidine-2-carboxamide] | – | – | – | 0.12 | 0.39 | 0.61 | 0.42 | 0.61 | 0.55 | 0.53 | 0.70 | 0.64 | –
Cc1nc(-c2cn3c(n2)-c2ccc(-c4cnn(C(C)(C)C(N)=O)c4)cc2OCC3)n(C(C)C)n1 [Taselisib] | – | – | – | – | – | – | – | – | – | – | – | – | selectivity for the α-subunit compared to the β-subunit [11]: 31 fold
